According to patent publication US20250135022A1, “METHODS FOR THE USE OF A B7-H3 ANTIBODY-DRUG CONJUGATE IN COMBINATION WITH A PD-1 X CTLA-4 BISPECIFIC MOLECULE” (MACROGENICS, INC., priority 2022, published 2025):

How the values were obtained:
[1] = Population pharmacokinetic (PPK) modeling of clinical PK data from a dose escalation trial; type: in vivo, human
Procedure: To analyze the pharmacokinetics of single and fractionated dose administration of MGC018, population pharmacokinetic (PPK) modeling was performed on clinical PK data from a dose escalation trial of MGC018. The initial model was based on data from 52 patients (516 ADC observations, 495 payload observations) and later updated with data from a total of 122 patients. MGC018 concentration values below quantification limit (BQL) were excluded from the analysis but were retained (commented out) in the data set.
The PPK analysis was conducted via nonlinear mixed-effects modeling with INTERACTION option (FOCEI) method using the NONMEM software, Version 7.5.0 (ICON Development Solutions). A quasi-steady-state (QSS) approximation of the target-mediated drug disposition (TMDD) model was used to describe the observed ADC data. All clearance and volume parameters were scaled allometrically. Goodness-of-fit plots and diagnostics (including standard error of the estimates) were used to evaluate the model fit. Due to the small sample size (52 subjects) no formal covariate analysis was attempted, although dependence of model parameters on weight, dose, and sex was investigated using diagnostic plots or by inclusion in the model. Ability of the model to describe strong covariate relationships identified by the model was tested by stratifying the diagnostic plots and model evaluation procedures by the covariates of interest. Specifically, the diagnostics and the predictive check procedures were stratified by dose (cohort).
Of the models evaluated, a linear 2-compartment with individual random effects on clearance (CL), central volume (Vc), peripheral volume (VP), inter-compartment clearance (Q), and proportional residual variability) best described the observed ADC data and advanced for further development of the combined ADC-free payload model. The free payload was described by a 1-compartment model with random effects on free payload clearance (CLTOX) and volume (VTOX) parameters with the input (from ADC) to both the central and delay compartments, with the random effects on the delay rate constant Ktr, CLTOX, and VTOX. The final model (Model 151) was selected based on diagnostics and goodness-of-fit and used to estimate MGC018 PK parameters. According to the model, elimination from the ADC was directed to the free payload, to the delay and central free payload compartments. Approximately equal fractions of ADC elimination went to each of these compartments. […] Thus, the free payload kinetics were defined by the kinetics of ADC and delay between ADC elimination and input to the free payload central compartment

[2] = system: MDA-MB-468 triple negative breast cancer cells; experiment: Anti-tumor activity against subcutaneously implanted MDA-MB-468 xenograft in SCID CES1c-KO mouse model; type: in vivo, SCID CES1c-KO mice; parameters: key to Anti-Tumor Activity: Highly Active: A T/C<10% is considered highly active; Active: a T/C≤42% is the minimum level of anti-tumor activity; Inactive: a T/C value of >42% is inactive
Procedure: In brief, ˜5×10^6 tumor cells (suspended in 1:1 media and MATRIGEL®) were subcutaneously implanted into the flank of female SCID CES1c-KO mice (Charles River Laboratories). When tumors had reached a volume of approximately 45-135 mm^3 (average 73 mm^3) on day 54, the mice were randomized and MGC018 or control vehicle were administered intravenously. In these studies, mice were administered either a single dose (1 mg/kg or 3 mg/kg, QW×1) of MGC018 or a fractionated dose of MGC018 (0.3 mg/kg or 1 mg/kg) once a week for 4 weeks (QW×4W). Vehicle was administered as a control on day 54. Tumors were measured twice weekly by orthogonal measurements with electronic calipers, with tumor volumes calculated as: (length×width×height)/2. The tumor volume (relative to control) was determined (“T/C”). A finding that the tumor volume of treated animals had decreased to ≤5 mm^3 during the study period was considered to denote a Complete Regression (“CR”) and a Partial Regression (“PR”) was defined when tumors were reduced by 50% or greater from day of dosing at any point during the study.

[3] = 0.3 mg/kg, QW × 4W, intravenous

For “MGC018: B7-H3-ADC: Light and Heavy Chain of anti-B7-H3 hmAb-A (SEQ ID NO:19, 20) conjugated via maleimide, valine-citrulline, para-aminobenzyloxycarbonyl linker to seco-DUBA payload”, the “central volume (V)” value ([1]; ADC, typical 75 kg subject) was 3.72 L, the “clearance (CL)” value ([1]; ADC, typical 75 kg subject) was 1.68 L/day and the “distribution half-life (t1/2 dist)” value ([1]; ADC, typical 75 kg subject) was 35.5 h. The “inter-compartment clearance (Q)” value ([1]; ADC, typical 75 kg subject) was 0.0549 L/day, the “peripheral volume (Vp)” value ([1]; ADC, typical 75 kg subject) was 0.700 L and the “terminal half-life (t1/2 term)” value ([1]; ADC, typical 75 kg subject) was 220 h. For the same substance, the “half-life corresponding to delay rate constant” value ([1]; Model 151) was 130 h, the “delay rate constant (Ktr)” value ([1]; delay between ADC elimination and input to free payload central compartment, Model 151) was 0.128 day⁻¹ and the “free payload elimination rate constant KTOX=CLTOX/VTOX” value ([1]; free payload, Model 151) was 52.5 day⁻¹. The “half-life corresponding to free payload elimination rate constant” value ([1]; free payload, Model 151) was “about 20 minutes”, the “% T/C at Day 70” value [2, 3] was 64% and the “Anti-Tumor Activity” value [2, 3] was “Inactive”. For the same substance, the “CR (complete regression)” value [2, 3] was 0/5, the “PR (partial regression)” value [2, 3] was 2/5 and the “% T/C at Day 70” value ([2]; 1 mg/kg, QW × 1, intravenous) was 26%. The “Anti-Tumor Activity” value ([2]; 1 mg/kg, QW × 1, intravenous) was “Active”, the “CR (complete regression)” value ([2]; 1 mg/kg, QW × 1, intravenous) was 0/5 and the “PR (partial regression)” value ([2]; 1 mg/kg, QW × 1, intravenous) was 4/5. For the same substance, the “% T/C at Day 70” value ([2]; 1 mg/kg, QW × 4W, intravenous) was 22%, the “Anti-Tumor Activity” value ([2]; 1 mg/kg, QW × 4W, intravenous) was “Active” and the “CR (complete regression)” value ([2]; 1 mg/kg, QW × 4W, intravenous) was 3/5. For the same substance, the “PR (partial regression)” value ([2]; 1 mg/kg, QW × 4W, intravenous) was 5/5, the “% T/C at Day 70” value ([2]; 3 mg/kg, QW × 1, intravenous) was 12% and the “Anti-Tumor Activity” value ([2]; 3 mg/kg, QW × 1, intravenous) was “Active”. For the same substance, the “CR (complete regression)” value ([2]; 3 mg/kg, QW × 1, intravenous) was 5/5, the “PR (partial regression)” value ([2]; 3 mg/kg, QW × 1, intravenous) was 5/5 and the “anti-tumor activity of fractionated dose compared with single dose” value ([2]; fractionated 0.3 and 1 mg/kg QW×4W vs single 1 or 3 mg/kg QW×1) was “near equivalent anti-tumor activity”.
